We go through six compounds from patent US20040197932A1, “Bio-vehicle, biosensor and biotransducer system” (priority 2003, published 2004).

This assay has as its system major urinary protein (MUP). Briefly: QCM ligand-binding test: shift of resonant frequency on binding of evaporated ligand to immobilized MUP. To be noted: MUP immobilized on 10 MHz AT-cut QCM chip; odorant sample evaporated at 50° C. and pumped into detection chamber. The arrangement: species or system mouse. On the procedure: The preferred electronic nose technology of the present invention is piezoelectric-based. Measurements are performed by detecting the binding of analytes (ligands) onto the sensing elements immobilized on piezoelectric materials, e.g., quartz crystal. The adsorption of ligand induces a shift in the oscillation frequency proportional to the mass of the encountered ligand. The operating performance of the present invention is described as bellow:
Gold electrodes of quartz crystal microbalance (QCM) surface are cleaned by immersing in 1.2 N NaOH and then in 1.2 N HCl. After rinsing and drying, the QCM electrodes are soaked in 1 mM 2-aminoethanethiol/DMSO solution for 12 hours and washed by double distilled water for 10 min. Then the QCM electrodes are dried in oven and dripped with 4 μl of 2.5% glutaldehyde for 1 hour. Two μl of 1% polyethylenimine/methanol (PEI/MeOH) solution are added onto activated surface of QCM in a closed chamber at room temperature for 12 hours. Finally, the QCM chips are washed two times and dried in oven.
Activated QCM chips are dipped in 2.5% glutaldehyde solution for 1 hour, and then MUP solution (20 μg/ml in 10 mM phosphate buffer, pH 7.4) are added and kept for 1 hour. Blocking the activated surface of QCM chips is performed by 100 mM glycine.
A sample is respectively applied in a syringe and kept in an oven at 50° C. An AT-cut QCM device with basic resonant frequency of 10 MHz is employed to determine the adsorption of odorant vapor. The evaporated odorant sample is pumped into the detection chamber of QCM and the shift of resonant frequency is recorded.
A variety of ligands are surveyed according to the above procedures. Table I lists the changes of signal in frequency upon the bindings of different ligands, including phenylacetate, propylbutyrate, hexylbutyrate, benzylbutyrate, propyltiglate, hexyltiglate, and benzyltiglate.
Take `C/C=C(\C)C(=O)OCCCCCC` [hexyltiglate]: the “Change of Signal (in frequency f)” value came to 55.
Next, `C/C=C(\C)C(=O)OCc1ccccc1` [benzyltiglate]: 43; `CCCCCCOC(=O)CCC` [hexylbutyrate]: 23.
As for `CCCOC(=O)CCC` [propylbutyrate], the “Change of Signal (in frequency f)” value is on record as 26.
Next, `CCCC(=O)OCc1ccccc1` [benzylbutyrate]: 43; `C/C=C(\C)C(=O)OCCC` [propyltiglate]: 29.
